Source: patent US4758555A, “Method for treating convulsions and epilepsy with organic copper compounds” (priority 1986, dated 1988)

Assays:
[1] = cited from earlier work
[2] = Anticonvulsant activity, both or unspecified seizure models; format: in vivo, male Carworth Farms #1 mice or Sprague-Dawley rats
[3] = Maximal Electroshock Seizure Test; format: in vivo, male Carworth Farms #1 mice or Sprague-Dawley rats; conditions: Mus musculus; Table X; IP; at time of peak activity; read-out: ED50 for inhibition of seizures, MES (Phase II)

## O=C1NC(=O)C(c2ccccc2)(c2ccccc2)N1 [Dilantin, Phenytoin, reference compound]
[1]
  Known effect of parent drug on seizures: known to only inhibit Maximal Electroshock-induced seizures but it potentiates Metrazol-induced seizures
[2]; Phase II
  Time of peak effect: 1 h
[2]; Table X, IP, challenge time
  Time of peak activity (Phase II): 1 h
[3]
  ED50: 7 mg/kg
